Assays:
coliform = details: in vitro, pure ozone; cited from earlier work
S. aureus = details: in vitro, pure ozone; cited from earlier work
Aeromonas hydrophilia = details: in vitro, pure ozone; cited from earlier work
enteroviruses = details: in vitro, pure ozone; cited from earlier work
poliovirus 2 = details: in vitro, pure ozone; cited from earlier work
coxsachie = details: in vitro, pure ozone; cited from earlier work
mice = details: 3 hours of inhalation; cited from earlier work
human subjects = details: 0.24 ppm for two hours; cited from earlier work
mammals = details: overdoses of pure O3; cited from earlier work
herpes simplex = assay: remission of herpes lesions in patient (Example 3)

In the case of O=[O+][O-] [ozone], the inactivation of coliform (coliform) is listed as “inactivates”, the “inactivation of S. aureus” value (S. aureus) is listed as “inactivates” and the “inactivation of Aeromonas hydrophilia” value (Aeromonas hydrophilia) is listed as “inactivates”. The inactivation of enteroviruses (enteroviruses) was “inactivates”, the “inactivation of poliovirus 2” value (poliovirus 2) was “inactivates” and the inactivation of coxsachie (coxsachie) was “inactivates”. The LD50 (mice) was 22 ppm, the cell functions (human subjects) was “inhibition of certain cell functions” and the enzyme activities (human subjects) was “wide fluctuations in enzyme activities”. For the same compound, the respiratory capacity (human subjects) was “drops in respiratory capacity” and the signs of overdose (mammals) was “pulmonary edema and hemorrhaging”.
With Nc1nc2c(ncn2COCCO)c(=O)[nH]1 [acyclovir] the “herpes lesions during treatment with acyclovir” value (herpes simplex) was “had persisted”.

— US5133975A, “Method for in vivo inactivation of blood borne HIV virus using a mixture of ozone and oxygen” (RJH and Company, Inc., priority 1989, dated 1992)
